Assay [1] has as its system Aβ1-42WT toxicity in SH-SY5Y cells. Put plainly: Inhibition of the toxicity induced by Aβ1-42WT in SH-SY5Y cell cultures (MTT test). Format: cell-based, human. The following applies: differentiated SH-SY5Y, co-incubated with Aβ1-42WT, 24 h. The procedure: Figure 2 Analysis of the effects of Aβ1-6WT(D), Aβ1-6A2V(D) and Aβ1-6A2VTAT(D) on neurotoxicity in cell models. SH-SY5Y cells were differentiated with 10 μM retinoic acid. After 6 days the proper peptide was added to culture medium and cell viability was assessed after 24 h by MTT test. […] Conversely, Aβ1-42WT reduces cell viability by 35%. * Significance vs non-treated cells. (C,D) Both Aβ1-6WT(D) and Aβ1-6A2V(D) are able to counteract the toxic effect of Aβ1-42WT. […] Comparison of cell viability was performed by Student t-test.
Toxicity studies with Aβ1-6WT(D), Aβ1-6A2V(D) or Aβ1-6A2VTAT(D) and the short peptides’ ability to inhibit the toxicity induced by Aβ1-42WT in SH-SY5Y cell cultures were analyzed following previously described protocols. Each experiment was performed in triplicate; the data provided were obtained as the mean of three independent assays.
A general note: Formazan colour is commonly taken as a measure of viable cells.

The next assay relates to huAPPSwe/moAPP0/0 mice. Put plainly: Pilot preclinical study in huAPPSwe/moAPP0/0 mice. Format: in vivo, mouse. The procedure: Transgenic APP23 mice expressing the Swedish double mutation in the human APP gene[46] and knock-out for endogenous APP (huAPP^Swe/moAPP^0/0) were generated in our lab by crossing APP23 mice with APP^0/0 animals. Mice (n = 6) were treated intraperitoneally (i.p.) every day for 21 days with Aβ1-6A2VTAT(D) (10 mg/kg) or saline solution and culled 24 h after the last treatment.
The left hemisphere of each brain was homogenized in 7 volumes of 10 mM Tris-HCl, pH 7.4, added with cOmplete Mini Protease Inhibitors cocktail (Roche), sonicated for 1 min using an ultrasonic homogenizer (SONOPULS) and centrifuged at 100,000 xg for 1 h at 4 °C. The supernatant was saved as the soluble fraction; the pellet was extracted in 70% formic acid and neutralized with 20 volumes of 1 M Tris (insoluble fraction).
Aβ40, Aβ42 and aggregated Aβ were measured in both soluble and insoluble fractions by ELISA (Invitrogen). Each experiment was performed in triplicate. The analysis of APP processing followed the protocol described above. After centrifugation, the supernatant was collected as the SDS-soluble fraction, which was analyzed by western blot with the A8717 antibody (Sigma). Signal intensity of the bands was measured by Quantity One (BioRad).
Coronal slices of the right hemibrain were embedded in paraffin and cut (7μm); sections were de-waxed in xylene and hydrated through serial alcohols to water. After formic acid (80%) pre-treatment, sections were incubated overnight with anti-Aβ antibody (4G8, 1:4000; Covance). The primary antibody signal was detected with a biotinylated secondary antibody followed by horseradish streptavidin peroxidase and visualized with DAB. Amyloid deposition was quantified in mouse brain using Aβ immunostaining (4G8) and the staining intensity was evaluated semiquantitatively using a scale range from 0 to 5 by light microscopy. The assessment was conducted in two adjacent sections of the same brain area[49]. A parallel quantification of the Aβ plaque load was performed using image analysis software (NIS-elements-Nikon)[50][51][52].

The mark [2] stands for this setting: i.p. daily for 21 days, vs saline, ELISA.

Where a SMILES comes first, the peptide text is derived from it. [ ]: non-standard residue; d: D form.

The results in this text go back to paper PMC4750079, “Tackling amyloidogenesis in Alzheimer’s disease with A2V variants of Amyloid-β” (Scientific Reports, 2016).

Take `CC(C)[C@@H](NC(=O)[C@H](N)CC(=O)O)C(=O)N[C@H](CCC(=O)O)C(=O)N[C@H](Cc1ccccc1)C(=O)N[C@H](CCCNC(=N)N)C(=O)N[C@H](Cc1c[nH]cn1)C(=O)NCC(=O)NCC(=O)NCC(=O)NCC(=O)NCC(=O)N[C@H](CCCNC(=N)N)C(=O)N[C@H](CCCCN)C(=O)N[C@H](CCCCN)C(=O)N[C@H](CCCNC(=N)N)C(=O)N[C@H](CCCNC(=N)N)C(=O)N[C@H](CCC(N)=O)C(=O)N[C@H](CCCNC(=N)N)C(=O)N[C@H](CCCNC(=N)N)C(=O)N[C@H](CCCNC(=N)N)C(=O)O` [Aβ1-6A2VTAT(D)] (H-[dD][dV][dE][dF][dR][dH]GGGGG[dR][dK][dK][dR][dR][dQ][dR][dR][dR]-OH; N-terminus assumed): in assay [1], the “effect on toxicity induced by Aβ1-42WT” value is listed as “significant dose-dependent reduction of the toxicity”. Also, the intracerebral amyloid deposits entry in the assay on huAPPSwe/moAPP0/0 mice (13-month-old mice, i.p. once a day for 3 weeks, 4G8 immunohistochemistry, plaque count) is “decrease of intracerebral amyloid deposits”. Besides, the “effects on APP processing (C99:C83 ratio), short-term” value in the assay with huAPPSwe/moAPP0/0 mice (after 3 weeks of treatment, western blot) is listed as “not observed after short-term treatment schedules”. In addition, in the assay on huAPPSwe/moAPP0/0 mice (setting [2]), the “Aβ42 in the soluble fraction and Aβ40, Aβ42 and aggregated Aβ in the insoluble fraction” value is recorded as “not significantly lower”; the “brain Aβ40 levels in the soluble fraction” value was “reduction of Aβ40 levels in the soluble fraction”; the “brain aggregated Aβ (soluble fraction)” value was “decrease in aggregated Aβ”.
